Experimental data: patent publication US9241889B2, “Oral compositions comprising sodium dodecylbenzene sulfonate” (Glaxo Group Limited, priority 2010, dated 2016)

What was measured:
[1] = Hydroxyapatite Tea Stain Removal Model (HATSR)
Description: A 96 well hydroxyapatite coated microtitre plate was treated with 100 μl aliquots of tea per well (1 teabag (PG Tips)/50 ml of deionised water) and the plate incubated at 37° C./100 rpm. After 10 minutes the plate was washed with deionised water and dried at 37° C. overnight. The test actives (200 μl per well) were added into each column of the tea coated plate along with the positive and negative control (5% sodium tripolyphosphate (STP) and water respectively) and the plate returned to the incubator. After 10 minutes the plate was once again washed and the bound stain was desorbed by the application of 200 μl of 2.5M citric acid per well. After a minimum of 12 hours, 180 μl of the tea/citric acid solutions were transferred to a clean, normal (not HA coated) 96 well microtitre plate and the absorption measured 405 nm.

[2] = Hydroxyapatite Stain Prevention Model (HASP)
Description: A 96 well hydroxyapatite coated microtitre plate was treated with whole unstimulated human saliva (100 μl per well) at 37° C./100 rpm. After 1 hour the plate was washed to remove any unbound components and 200 μl of each test active was transferred to the plate in columns along with a positive and negative control (5% sodium tripolyphosphate, STP), and water respectively) and the plate returned to the incubator. After 10 minutes the plate was once again washed and the plate was stained by the application of 200 μl of fresh tea solution (1 teabag (PG tips)/50 ml of deionised water). After an additional 10 minutes of incubation, the tea was removed and the plate washed. Finally, the bound stain was desorbed by the application of 200 μl of 2.5M citric acid per well. After a minimum of 12 hours, 180 μl of the tea/citric acid solutions were transferred to a clean, normal (not HA coated) 96 well microtitre plate and the absorption measured 405 nm.

## sodium dodecylbenzene sulphonate [SDDBS]
[1]; SDDBS solutions 0.1%-10%, pH 7, n=8, FIG. 2
  stain removal: removes stain in a dose dependent manner
[1]; all SDDBS concentrations except 0.125%, pH 7, FIG. 2
  stain removal versus water negative control: statistically superior to the water negative control
[1]; all SDDBS concentrations, pH 7, FIG. 2
  stain removal versus positive control 5% STP: none were as effective as the positive control STP
[2]; 0.1% SDDBS, pH 7, FIG. 1
  stain prevention versus water negative control: only directionally superior
[2]; SDDBS solutions 0.1%-10%, pH 7, n=8, FIG. 1
  stain prevention (uptake of dietary stain onto HASP model oral surfaces): prevents the uptake of dietary stain
[2]; all SDDBS concentrations 0.1%-10%, pH 7, FIG. 1
  stain prevention versus positive control 5% STP: none were as effective as the positive control STP
[2]; all SDDBS concentrations except 0.1%, pH 7, FIG. 1
  stain prevention versus water negative control: statistically superior to the water negative control
[2]; equivalent concentration (1% surfactant), pH 7, n=8, FIG. 3
  stain prevention versus SLS: statistically superior to sodium lauryl sulphate (SLS)
